Reference: PubChem BioAssay (NCI)
Where “and” joins values, the source holds several entries; their conditions need not be identical. Equal entries are not always repeated.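 Compound exposure: 48 hours, 5 concentrations, 96-well plates. GI50 = concentration required for 50% inhibition of growth. TGI: concentration producing complete growth inhibition.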

Tests used:
Assay in all cases: NCI anticancer screen, dose series, 48 h
[1] = test system: MALME-3M melanoma
[2] = test system: SK-MEL-28 melanoma
[3] = test system: MCF7 breast
[4] = test system: UO-31 renal
[5] = test system: HCT-116 colon
[6] = test system: UACC-257 melanoma
[7] = test system: A498 renal
[8] = test system: HT29 colon
[9] = test system: SK-OV-3 ovarian
[10] = test system: NCI-H460 lung

Structure (SMILES)	TGI [1]	TGI [2]	TGI [3]	TGI [4] [µM]	TGI [5]	TGI [6] [µM]	TGI [7]	TGI [8]	TGI [9] [µM]	TGI [10]	GI50 [1]	GI50 [2] [µM]	GI50 [3] [µM]	GI50 [4] [µM]	GI50 [5] [µM]	GI50 [6] [µM]	GI50 [7]	GI50 [8] [µM]	GI50 [9]	GI50 [10]
CCOC(=O)C(NC(=O)N(C1=NCC(C)S1)C1CCCCC1)(OC)C(F)(F)F (stereo not drawn)	> 100 µM	> 100 µM	62.2 µM	> 100	> 100 µM	> 100	44.4 µM	53 µM	> 100	> 100 µM	–	–	–	–	–	–	–	–	–	–
COC(=O)[C@H]1[C@@H](C(C)C)O[C@@H](C(C)C)O[C@H]1C(F)(F)F	> 100 µM	> 100 µM	> 100 µM	> 100	> 100 µM	> 100	> 100 µM	> 100 µM	> 100	> 100 µM	–	–	–	–	–	–	–	–	–	–
O=[N+]([O-])c1ccc2nc(-c3ccccn3)c(-c3ccccn3)nc2c1	> 100 µM	> 100 µM	> 100 µM	> 100	> 100 µM	> 100	> 100 µM	> 100 µM	> 100	> 100 µM	–	–	–	–	–	–	–	–	–	–
Nc1nc(-c2ccccc2N=NN2CCCC2)nc2ccccc12	13.5 µM	25.2 µM	55.9 µM	3.43	2.55 µM	14.9	20.2 µM	10.8 µM	21.4	17.9 µM	–	–	–	–	–	–	–	–	–	–
CC(=O)O[C@@H]1C[C@@]23C[C@@]24CC[C@H](OC2OCC(O)C(O)C2O)C(C)(C)[C@@H]4CC=C3[C@]2(C)C[C@@H]3OC4(C[C@@H](C)[C@@H]3[C@@]12C)OC(O)[C@@]1(C)O[C@@H]41 (stereo partly drawn)	> 100 µM	> 100 µM	> 100 µM	> 100	49.7 µM	67	> 100 µM	> 100 µM	62.8	66.9 µM	–	–	–	–	–	–	–	–	–	–
CCOP(=O)(OCC)C(Nc1cccc(F)c1)c1ccccc1 (stereo not drawn)	> 100 µM	> 100 µM	> 100 µM	> 100	> 100 µM	> 100	> 100 µM	> 100 µM	> 100	> 100 µM	–	–	–	–	–	–	–	–	–	–
Cc1cc(/C=C\c2ccc3ccccc3[n+]2C)c(O)c2ncccc12	5.16 µM	4.39 µM	–	3.27	1.41 µM	6.59	3.01 µM	21.7 µM	4.84	1.82 µM	1.17 µM	0.517	0.283	0.405	0.116	1.54	0.18 µM	0.218	1.68 µM	0.224 µM
C/C=C\C(CC(=O)NCCc1cn(C(=O)OCc2ccccc2)c2ccccc12)CC(=O)OC (stereo not drawn)	> 100 µM	> 100 µM	> 100 µM	> 100	> 100 µM	> 100	> 100 µM	> 100 µM	> 100	> 100 µM	–	–	–	–	–	–	–	–	–	–
[Cl][Pt+2][Cl].[NH-]C1CCCCC1[NH-] (stereo not drawn)	32.4 µM and 24 µM and 7.45 µM	65.8 µM and 56.4 µM and 20.6 µM	> 37 µM and > 100 µM and 10.1 µM	> 100	> 100 µM and 16 µM	> 96.6	> 100 µM and 65.3 µM	> 100 µM and 31 µM	> 100	17.9 µM and 36.1 µM and 14 µM	10.2 µM and 3.39 µM and 1.14 µM	–	–	–	–	–	> 100 µM and 12.6 µM	–	18.5 µM and > 80.9 µM and 25.1 µM	1.94 µM and 0.903 µM and 0.287 µM
O=C(CSCC(=O)N/N=C/c1cccs1)N/N=C/c1cccs1	> 100 µM	> 100 µM	> 100 µM	> 100	> 100 µM	> 100	> 100 µM	> 100 µM	> 100	> 100 µM	–	–	–	–	–	–	–	–	–	–
CN(C)/N=C/c1cn(C)c(=O)n(C)c1=O	> 100 µM	> 100 µM	> 100 µM	> 100	> 100 µM	> 100	> 100 µM	> 100 µM	> 100	> 100 µM	–	–	–	–	–	–	–	–	–	–
O=[N+]([O-])c1ccc(S[C@@H]2[C@H]3c4c(-c5ccccc5)[nH]c(-c5ccccc5)c4[C@@H]2C[C@H]3Cl)cc1	78.9 µM	> 100 µM	16.5 µM	28.4	7.86 µM	> 100	89 µM	> 100 µM	> 100	12.9 µM	–	–	–	–	–	–	–	–	–	–
Cc1ccncc1.F[B-](F)(F)F.[Pt+2].c1ccc(-c2cccc(-c3ccccn3)n2)nc1	20.1 µM	> 100 µM	25.7 µM	> 27.8	> 100 µM	44.5	45.1 µM	27.9 µM	17.6	23.3 µM	–	–	–	–	–	–	–	–	–	–
COC1OC(Cc2nnc(C)o2)C(OCc2ccccc2)C(OCc2ccccc2)C1OCc1ccccc1 (stereo not drawn)	38.9 µM	45.3 µM	49.7 µM	> 100	> 100 µM	36.9	> 100 µM	63.3 µM	> 100	87 µM	–	–	–	–	–	–	–	–	–	–
Cc1ccc(C(=O)N/N=C(\N=Nc2cccc(Cl)c2)c2ccc(N(CCC#N)CCC#N)cc2C)cc1	> 100 µM	> 100 µM	> 100 µM	> 100	> 100 µM	> 100	> 100 µM	> 100 µM	> 100	> 100 µM	–	–	–	–	–	–	–	–	–	–
COc1cc(/C=C/C(=O)c2c(=O)o[nH][n+]2-c2ccccc2)ccc1[O-]	12 µM	8.85 µM	13.8 µM	10.1	5.67 µM	12.4	20.2 µM	6.64 µM	16.1	4.34 µM	–	–	–	–	–	–	–	–	–	–
CCOC(=O)c1c(CN2CCNCC2)nc2ccccc2c1-c1ccccc1	22 µM	25.1 µM	28.1 µM	21.7	23.7 µM	15.7	28.3 µM	17.8 µM	30.1	28.4 µM	–	–	–	–	–	–	–	–	–	–
N#CC(C#N)=C1C(C#N)=C(N)NC12OCCO2	> 100 µM	> 100 µM	> 100 µM	> 100	> 100 µM	> 100	> 100 µM	> 100 µM	> 100	> 100 µM	–	–	–	–	–	–	–	–	–	–
CCOC(=O)C(=[N+]=[N-])C(=O)Nc1nn2nnnc2c2ccccc12	> 100 µM	> 100 µM	> 100 µM	> 100	> 100 µM	> 100	> 100 µM	> 100 µM	> 100	> 100 µM	–	–	–	–	–	–	–	–	–	–
COc1cc2c(cc1OCCCC(=O)Nc1cc(C(=O)Nc3cc(C(=O)Nc4cc(C(=O)NCCCN(C)C)n(C)n4)n(C)n3)n(C)n1)N=CC1CCCN1C2=O (stereo not drawn)	25.5 µM	30.7 µM	> 100 µM	16.6	> 100 µM	40.9	42.8 µM	51.3 µM	> 100	> 100 µM	–	–	–	–	–	–	–	–	–	–
OCC1OC(n2cnc3cncnc32)C(O)C1O (stereo not drawn)	4.73 µM	5.23 µM	2.15 µM	6.84	1.23 µM	3.75	3.69 µM	2.89 µM	5.16	1.49 µM	–	–	–	–	–	–	–	–	–	–
NC(=S)N/N=C\c1ccc(OCc2cccc(COc3ccc(/C=N/NC(N)=S)cc3)n2)cc1	> 100 µM	> 100 µM	> 100 µM	> 100	> 100 µM	> 100	> 100 µM	> 100 µM	> 100	> 100 µM	–	–	–	–	–	–	–	–	–	–
Cc1ccc(C(C)(C)C[P+](C)(c2ccccc2)c2ccccc2)cc1	> 48.8 µM	66.4 µM	> 81.2 µM	> 85	> 58.1 µM	> 26.7	> 100 µM	43.8 µM	64.2	> 100 µM	–	–	–	–	–	–	–	–	–	–
